This assay deals with T1, proteasome (Rattus norvegicus, UniProt P28073+P28075+Q9JHW0).
T1 construct: gene Psmb5; native, not purified; soluble fraction (100,000 g supernatant) of liver, brain or lens homogenate; 20S/26S and immunoproteasome content not resolved; with Proteasome subunit beta type-1; Proteasome subunit beta type-2; Proteasome subunit beta type-3; Proteasome subunit beta type-4; Proteasome subunit alpha type-1; Proteasome subunit alpha type-2; Proteasome subunit alpha type-3; Proteasome subunit alpha type-4; Proteasome subunit alpha type-5; Proteasome subunit alpha type-6; Proteasome subunit alpha type-7
The experiment in a line: fluorogenic AMC release, Lineweaver-Burk plot. Conditions: liver soluble fraction, Tris pH 7.5, EDTA, 2 mM DTT, 37°C, per-animal values versus age, brain and lens in Figures 2 and 3. The class given is biochemical.

Starred links: 1 amine or outer side, 2 acyl side, 3 side chain; linkers in the order of their positions; H or OH if unused. Residues, ends and D or L forms follow the SMILES beside them. *: point of attachment. AMC = Cc1cc(=O)oc2cc(N*)ccc12; Suc = O=C(CCC(=O)[*:2])[*:1]; Cbz = O=C(OCc1ccccc1)*; Boc = CC(C)(C)OC(=O)*

For the molecule `Cc1cc(=O)oc2cc(NC(=O)[C@H](CCC(=O)O)NC(=O)[C@H](CC(C)C)NC(=O)[C@H](CC(C)C)NC(=O)OCc3ccccc3)ccc12` [LLE, Z-Leu-Leu-Glu-AMC] (Cbz-Leu-Leu-Glu-{AMC}), the K m entry (peptidylglutamyl peptidase site (beta1)) was “Michaelis-Menten constants (K m) of the proteasome in rat liver versus age”. Consider `Cc1cc(=O)oc2cc(NC(=O)[C@H](Cc3ccc(O)cc3)NC(=O)[C@@H](NC(=O)[C@H](CC(C)C)NC(=O)[C@H](CC(C)C)NC(=O)CCC(=O)O)C(C)C)ccc12` [LLVY, Suc-Leu-Leu-Val-Tyr-AMC] (Suc-LLVY-{AMC}), for which, for the setting “chymotrypsin-like site (beta5)”, the K m result is reported as “Michaelis-Menten constants (K m) of the proteasome in rat liver versus age”.

For the molecule `Cc1cc(=O)oc2cc(NC(=O)[C@H](CCCNC(=N)N)NC(=O)CNC(=O)[C@@H](NC(=O)OC(C)(C)C)C(C)C)ccc12` [VGR, Boc-Val-Gly-Arg-AMC] (Boc-Val-Gly-Arg-{AMC}), the K m result (trypsin-like site (beta2)) was “Michaelis-Menten constants (K m) of the proteasome in rat liver versus age”.

(Values after publication PMC2850129, “Changes in Activity and Kinetic Properties of the Proteasome in Different Rat Organs during Development and Maturation” (Current Gerontology and Geriatrics Research, 2010).)
